According to patent publication US12171230B2, “Herbicidal compositions” (Bayer Aktiengesellschaft, priority 2018, dated 2024):
Several values for one entry are separate records, joined by “and”; a condition that tells them apart may be missing. Equal values may be shown once.

Tests used:
Format in all cases: in vivo
Amaranthus palmeri = test: Post-emergence herbicidal action against Amaranthus palmeri
Outline: (§1)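 Post-emergence foliar application: sandy-loam pots, greenhouse, treatment at three-leaf stage, 300–800 l/ha spray volume. Readout is visual % effect at 3–4 weeks, compared with the Colby expected value for mixtures.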

Ipomoea ssp. = test: Post-emergence herbicidal action against Ipomoea ssp.; conditions: 45 DAT
Lysimachia nummularia = test: Post-emergence herbicidal action against Lysimachia nummularia; conditions: 45 DAT; 720 g a.i./ha
Malva pusilia = test: Post-emergence herbicidal action against Malva pusilia; conditions: 42 DAT; 720 g a.i./ha
Bidens pilosa = test: Post-emergence herbicidal action against Bidens pilosa; conditions: for Herbicidal action: 21 DAT; for Herbicidal action 21 DAT [%] against Bidens pilosa: post-emergence, block with (B1.14) Tembotrione
Outline: as §1

Brachiaria platyphylla = test: Post-emergence herbicidal action against Brachiaria platyphylla; conditions: for Herbicidal action 21 DAT [%] against Brachiaria platyphylla: post-emergence, block with (B1.14) Tembotrione
Experimental: (§2) When the observed efficacies exceed the formal sum total of the values of the tests with individual applications, they also exceed the expected value according to Colby, which is calculated using the formula below and is likewise regarded as an indication of synergism (cf. S. R. Colby; in Weeds 15 (1967) p. 20 to 22): E^C=A+B−([…])
(§3) Here: • A=efficacy of the active compound (A) in % at an application rate of a g a.i./ha; • B=efficacy of the active compound (B) in % at an application rate of b g a.i./ha; • E^C=expected value of the effect of the combination (A)+(B) in % at the combined application rate a+b g a.i./ha.
(§4) Seeds or rhizome pieces of mono- and dicotyledonous weeds are placed in sandy loam in pots, covered with soil and grown in a greenhouse under good growth conditions (temperature, air humidity, water supply). Three weeks after sowing, the test plants were treated at the three-leaf stage with the compositions according to the invention. The compositions according to the invention formulated as spray powders or as emulsion concentrates were sprayed onto the green plant parts in various dosages with an application rate of 300 to 800 l/ha of water (equivalent). After the test plants have been left to stand in the greenhouse under optimal growth conditions for about 3 to 4 weeks, the action of the preparations is scored visually in comparison to untreated controls. The compositions according to the invention also have good post-emergence herbicidal activity against a broad spectrum of economically important gramineous and broadleaf weeds.

Setaria viridis = test: Post-emergence herbicidal action against Setaria viridis
Experimental: as §2, §3, §4

Sorghum halepense = test: Post-emergence herbicidal action against Sorghum halepense; conditions: for Herbicidal action: 21 DAT; for Herbicidal action 21 DAT [%] against Sorghum halepense: post-emergence
Experimental: as §2, §3, §4

Digitaria sanguinalis = test: Post-emergence herbicidal action against Digitaria sanguinalis; conditions: 21 DAT; 450 g a.i./ha
Outline: as §1

Pharbitis purpurea = test: Post-emergence herbicidal action against Pharbitis purpurea; conditions: 21 DAT; 50 g a.i./ha
Experimental: as §2, §3, §4

Poa annua = test: Post-emergence herbicidal action against Poa annua; conditions: 28 DAT
Outline: as §1

Centaurea cyano = test: Post-emergence herbicidal action against Centaurea cyano; conditions: 150 g a.i./ha
Outline: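 Formulations (spray powders or emulsion concentrates) applied at various doses onto foliage using 300 to 800 l/ha water; plants treated at three-leaf stage, three weeks post-sowing in sandy loam under greenhouse conditions.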

Echinochloa crus-galli = test: Post-emergence herbicidal action against Echinochloa crus-galli; conditions: 21 DAT; 150 g a.i./ha
Experimental: as §2, §3, §4

Eleusine indica = test: Post-emergence herbicidal action against Eleusine indica; conditions: 21 DAT
Kochia scoparia = test: Post-emergence herbicidal action against Kochia scoparia; conditions: 21 DAT
Polygonum convolvulus = test: Post-emergence herbicidal action against Polygonum convolvulus; conditions: 21 DAT
Bromus sterilis = test: Post-emergence herbicidal action against Bromus sterilis; conditions: 28 DAT; 150 g a.i./ha
Lolium rigidum = test: Post-emergence herbicidal action against Lolium rigidum; conditions: 28 DAT; resistant biotype; 50 g a.i./ha
Ipomoea hederacea = test: Post-emergence herbicidal action against Ipomoea hederacea; conditions: 37.5 g of a.i./ha, post-emergence
Experimental: as §2, §3, §4

Molecule O=C(O)CNCP(=O)(O)O [(B7.5) Glyphosate (CAS 39600-42-5)] has a Herbicidal action (Amaranthus palmeri; 16 DAT, 1440 g a.i./ha) of 2%, a Herbicidal action (Ipomoea ssp.; 720 g a.i./ha) of 0% and a Herbicidal action (Ipomoea ssp.; 1440 g a.i./ha) of 0%. The Herbicidal action (Lysimachia nummularia) was 7% and the Herbicidal action (Malva pusilia) was 0%.

CP(=O)(O)CCC(N)C(=O)O (stereo not drawn) [(B7.4) Glufosinate] showed a Herbicidal action (Amaranthus palmeri; 21 DAT, 50 g a.i./ha) of 50%, a Herbicidal action (Amaranthus palmeri; 21 DAT, (res.), 50 g a.i./ha) of 35% and a Herbicidal action (Amaranthus palmeri; 21 DAT, (res.), 150 g a.i./ha) of 70%. For the same molecule, the Herbicidal action (Bidens pilosa; 50 g a.i./ha) was 30%, the Herbicidal action (Bidens pilosa; 150 g a.i./ha) was 75% and the Herbicidal action (Bidens pilosa; 450 g a.i./ha) was 75% and 90%. The Herbicidal action (Brachiaria platyphylla; 21 DAT, 150 g a.i./ha) was 70%, the Herbicidal action (Setaria viridis; 21 DAT, 50 g a.i./ha) was 40% and 20% and the Herbicidal action (Sorghum halepense; 50 g a.i./ha) was 20%. It also gave a Herbicidal action (Sorghum halepense; 450 g a.i./ha) of 5%, a Herbicidal action (Digitaria sanguinalis) of 85% and a Herbicidal action (Pharbitis purpurea) of 20%. For the same molecule, the Herbicidal action (Poa annua; 50 g a.i./ha) was 20%, the Herbicidal action (Poa annua; 150 g a.i./ha) was 30% and the Herbicidal action (Centaurea cyano; 14 DAT) was 60%. The Herbicidal action (Centaurea cyano; 28 DAT) was 30%, the Herbicidal action (Echinochloa crus-galli) was 65% and the Herbicidal action (Eleusine indica; 50 g a.i./ha) was 15%. For the same molecule, the Herbicidal action (Eleusine indica; 150 g a.i./ha) was 35% and 40%, the Herbicidal action (Eleusine indica; 450 g a.i./ha) was 60% and the Herbicidal action (Kochia scoparia; 50 g a.i./ha) was 20%. It also gave a Herbicidal action (Kochia scoparia; 450 g a.i./ha) of 80%, a Herbicidal action (Polygonum convolvulus; 50 g a.i./ha) of 10% and a Herbicidal action (Polygonum convolvulus; 150 g a.i./ha) of 20%. The Herbicidal action (Bromus sterilis) was 10% and the Herbicidal action (Lolium rigidum) was 10%.

In the case of CS(=O)(=O)c1ccc(C(=O)C2C(=O)CCCC2=O)c(Cl)c1COCC(F)(F)F [(B1.14) Tembotrione, tembotrione, reference compound], the pest or weed control at 5 g/ha (Amaranthus palmeri; Amaranthus palmeri, post-emergence, 504 h, 5 g of a.i./ha, post-emergence, block with (B1.14) Tembotrione, read-out: Herbicidal action 21 DAT [%] against Amaranthus palmeri) is reported as 10%, the pest or weed control at 15 g/ha (Amaranthus palmeri; Amaranthus palmeri, post-emergence, 504 h, 15 g of a.i./ha, post-emergence, block with (B1.14) Tembotrione, read-out: Herbicidal action 21 DAT [%] against Amaranthus palmeri) is reported as 20% and the “Herbicidal action 21 DAT [%] against Bidens pilosa” value (Bidens pilosa; 5 g of a.i./ha) is reported as 10%. The “Herbicidal action 21 DAT [%] against Bidens pilosa” value (Bidens pilosa; 15 g of a.i./ha) was 25%, the “Herbicidal action 21 DAT [%] against Bidens pilosa” value (Bidens pilosa; 45 g of a.i./ha) was 25% and the “Herbicidal action 21 DAT [%] against Brachiaria platyphylla” value (Brachiaria platyphylla; 15 g of a.i./ha) was 50%. The “Herbicidal action 21 DAT [%] against Brachiaria platyphylla” value (Brachiaria platyphylla; 45 g of a.i./ha) was 50%, the “Herbicidal action 21 DAT [%] against Setaria viridis” value (Setaria viridis; 5 g of a.i./ha, post-emergence) was 10% and the “Herbicidal action 21 DAT [%] against Sorghum halepense” value (Sorghum halepense; 5 g of a.i./ha) was 30%. The “Herbicidal action 21 DAT [%] against Sorghum halepense” value (Sorghum halepense; 15 g of a.i./ha) was 50% and the “Herbicidal action 37 DAT [%] against Ipomoea hederacea” value (Ipomoea hederacea) was 0%.
